Experimental findings from ChEMBL document CHEMBL1127384, “Design, synthesis, and conformational analysis of a novel macrocyclic HIV-protease inhibitor” (J Med Chem, 1994) are described below.

The assay concerns the target Human immunodeficiency virus type 1 protease (Human immunodeficiency virus 1, UniProt Q72874). Briefly: In vitro ability to inhibit HIV-protease.

The compound `CC(C)[C@H](NC(=O)OCc1ccccc1)C(=O)N[C@@H](Cc1ccc(OCc2ccccc2)cc1)C(=O)C(F)(F)C(=O)NCc1ccccc1` gave a Ki of 0.005 µM.

Turning to `CC(C)[C@@H]1NC(=O)CNC(=O)COc2ccc(cc2)C[C@@H](C(=O)C(F)(F)C(=O)NCc2ccccc2)NC1=O`, the affinity, expressed as Ki, was 0.02 µM.
